From ChEMBL document CHEMBL3046519, “Synthesis and biological evaluation of some pyrazole derivatives as anti-inflammatoryantibacterial agents” (2012)
≈ marks a conversion by molar mass, not a printed value.

Columns and labels:
Bacillus subtilis [1] = test: Antibacterial activity against Bacillus subtilis MTCC 121 at 4 mg/ml after 24 hr by agar well diffusion method; type: functional; conditions: MTCC 121, 24 h, read-out: DIZ
Staphylococcus aureus [2] = test: Antibacterial activity against Staphylococcus aureus MTCC 96 at 4 mg/ml after 24 hr by agar well diffusion method; type: functional; conditions: MTCC 96, 24 h, read-out: DIZ
Pseudomonas aeruginosa = test: microbe, parasite or virus in culture; conditions: MTCC 741, 24 h, read-out: DIZ
Staphylococcus aureus [3] = test: Antibacterial activity against Staphylococcus aureus MTCC 96 by NCCLS broth macrodilution method; type: functional
Bacillus subtilis [4] = test: Antibacterial activity against Bacillus subtilis MTCC 121 by NCCLS broth macrodilution method; type: functional
Rattus norvegicus [5] = organism: Rattus norvegicus; test: animal or person; conditions: Wistar albino, ip, read-out: INH
Rattus norvegicus [6] = test: Anti-inflammatory activity in Rattus norvegicus Wistar albino (rat) assessed as inhibition of carrageenan-induced paw edema at 10 mg/kg, ip administered for 30 min prior to carrageenan challenge measured at 3 hr relative to control; type: functional; conditions: route intraperitoneal
Rattus norvegicus [7] = test: Anti-inflammatory activity in Rattus norvegicus Wistar albino (rat) assessed as inhibition of carrageenan-induced paw edema at 10 mg/kg, ip administered for 30 min prior to carrageenan challenge measured at 4 hr relative to control; type: functional; conditions: route intraperitoneal
Rattus norvegicus [8] = organism: Rattus norvegicus; test: animal or person; conditions: Wistar albino, ip, read-out: INH; remark: listed apart in the source

Row | Structure (SMILES) | zone of inhibition at 4000 µg/mL (Bacillus subtilis [1]) [mm] | zone of inhibition at 4000 µg/mL (Staphylococcus aureus [2]) [mm] | zone of inhibition at 4000 µg/mL (Pseudomonas aeruginosa) [mm] | MIC (Staphylococcus aureus [3]) [µg/mL] | MIC (Bacillus subtilis [4]) [µg/mL] | inhibition in vivo at 10 mg/kg (Rattus norvegicus [5]) [%] | inhibition in vivo at 10 mg/kg (Rattus norvegicus [6]) [%] | inhibition in vivo at 10 mg/kg (Rattus norvegicus [7]) [%] | inhibition in vivo at 10 mg/kg (Rattus norvegicus [8]) [%]
1 | O=C(O)c1cn(C2CC2)c2cc(N3CCNCC3)c(F)cc2c1=O [CIPROFLOXACIN] | 25.6 | 26.3 | 23.3 | 5 (≈ 15.1 µM) | 5 (≈ 15.1 µM) | – | – | – | –
2 | COc1ccc2c(c1)c(CC(=O)O)c(C)n2C(=O)c1ccc(Cl)cc1 [INDOMETHACIN] | – | – | – | – | – | 41 | 78 | 78 | 79
